Test results as given in US20110201620A1, “2-(3-AMINOARYL) AMINO-4-ARYL-THIAZOLES AND THEIR USE AS C-KIT INHIBITORS” (AB SCIENCE, priority 2002, published 2011).

Test: Phase 2 clinical trial in advanced GIST, safety assessment
Assay type: in vivo, human
From the text: Methods; Patients: Patients enrolled in this study were aged over 18 years with inoperable, non-pretreated, histologically proven locally advanced or metastatic, c-Kit positive GIST. […] Exclusion criteria included: inadequate organ function defined via blood tests, severe liver or cardiac failure, and severe neurological or psychiatric disorders. Patients receiving a concomitant treatment within 4 weeks before inclusion, and pregnant or lactating women were also excluded. […] All adverse events (AEs), including abnormal serology or haematology, were recorded regardless of causality.

[1] = N = 30, Suspected: treatment related or not assessable

Cc1ccc(NC(=O)c2ccc(CN3CCN(C)CC3)cc2)cc1Nc1nc(-c2cccnc2)cs1 [Compound 066, 4-(4-methyl-piperazin-1-ylmethyl)-N-[4-methyl-3-(4-pyridin-3-yl-thiazol-2-ylamino)-phenyl]-benzamide]
patients reporting one grade 4 AE (skin exfoliation) (1/30 patient): 3.3%
patients with treatment interruption for treatment-related haematological toxicity (1/30 patient): 3%
patients with grade 3 treatment-related rash (3/30 patients): 10%
patients experiencing serious adverse events (SAE) (8/30 patients): 27%
patients with treatment interruption for non-haematological AEs (13/30 patients): 43%
patients with at least one grade 3 treatment-related AE (14/30 patients): 47%
patients with treatment interruption for more than 8 days (16/30 patients): 53.3%
patients with treatment-related oedemas (all types) (21/30 patients): 70%
patients reporting at least one treatment-related AE (ITT population): All patients
treatment-related toxicity per patient: abdominal pain (ITT population): 33%
treatment-related toxicity per patient: asthenia (ITT population): 83%
treatment-related toxicity per patient: cutaneous rash (ITT population): 40%
treatment-related toxicity per patient: diarrhoea (ITT population): 57%
treatment-related toxicity per patient: eye oedema (ITT population): 47%
treatment-related toxicity per patient: muscle spasms (ITT population): 40%
treatment-related toxicity per patient: nausea (ITT population): 47%
treatment-related toxicity per patient: peripheral oedema (ITT population): 20%
treatment-related toxicity per patient: pruritus (ITT population): 33%
treatment-related toxicity per patient: upper abdominal pain (ITT population): 23%
treatment-related toxicity per patient: vomiting (ITT population): 23%
Abdominal Pain Upper, All causalities, All grades (N = 30): 9 (30.0%) Number (%) of patients
Abdominal Pain, All causalities, All grades (N = 30): 16 (53.3%) Number (%) of patients
Abdominal Pain, All causalities, G3 + G4 (N = 30): 2 (6.7%) Number (%) of patients
Anaemia, All causalities, All grades (N = 30): 6 (20.0%) Number (%) of patients
Anaemia, All causalities, G3 + G4 (N = 30): 1 (3.3%) Number (%) of patients
Asthenia, All causalities, All grades (N = 30): 27 (90.0%) Number (%) of patients
Asthenia, All causalities, G3 + G4 (N = 30): 1 (3.3%) Number (%) of patients
Diarrhoea, All causalities, All grades (N = 30): 18 (60.0%) Number (%) of patients
Diarrhoea, All causalities, G3 + G4 (N = 30): 1 (3.3%) Number (%) of patients
Dry Skin, All causalities, All grades (N = 30): 4 (13.3%) Number (%) of patients
Erythema, All causalities, All grades (N = 30): 6 (20.0%) Number (%) of patients
Eye Oedema, All causalities, All grades (N = 30): 14 (46.7%) Number (%) of patients
Eye Oedema, All causalities, G3 + G4 (N = 30): 1 (3.3%) Number (%) of patients
Eyelid Oedema, All causalities, All grades (N = 30): 7 (23.3%) Number (%) of patients
Lacrimation Increased, All causalities, All grades (N = 30): 4 (13.3%) Number (%) of patients
Mucosal Inflammation, All causalities, All grades (N = 30): 5 (16.7%) Number (%) of patients
Mucosal Inflammation, All causalities, G3 + G4 (N = 30): 1 (3.3%) Number (%) of patients
Muscle Spasms, All causalities, All grades (N = 30): 12 (40.0%) Number (%) of patients
Myalgia, All causalities, All grades (N = 30): 4 (13.3%) Number (%) of patients
Nausea, All causalities, All grades (N = 30): 15 (50.0%) Number (%) of patients
Neutropenia, All causalities, All grades (N = 30): 5 (16.7%) Number (%) of patients
Neutropenia, All causalities, G3 + G4 (N = 30): 2 (6.7%) Number (%) of patients
Oedema Peripheral, All causalities, All grades (N = 30): 8 (26.7%) Number (%) of patients
Pruritus, All causalities, All grades (N = 30): 11 (36.7%) Number (%) of patients
Pruritus, All causalities, G3 + G4 (N = 30): 1 (3.3%) Number (%) of patients
Rash, All causalities, All grades (N = 30): 12 (40.0%) Number (%) of patients
Rash, All causalities, G3 + G4 (N = 30): 3 (10.0%) Number (%) of patients
Vomiting, All causalities, All grades (N = 30): 10 (33.3%) Number (%) of patients
Abdominal Pain Upper, Suspected, All grades [1]: 7 (23.3%) Number (%) of patients
Abdominal Pain, Suspected, All grades [1]: 10 (33.3%) Number (%) of patients
Abdominal Pain, Suspected, G3 + G4 [1]: 1 (3.3%) Number (%) of patients
Anaemia, Suspected, All grades [1]: 4 (13.3%) Number (%) of patients
Anaemia, Suspected, G3 + G4 [1]: 1 (3.3%) Number (%) of patients
Asthenia, Suspected, All grades [1]: 25 (83.3%) Number (%) of patients
Asthenia, Suspected, G3 + G4 [1]: 1 (3.3%) Number (%) of patients
Diarrhoea, Suspected, All grades [1]: 17 (56.7%) Number (%) of patients
Diarrhoea, Suspected, G3 + G4 [1]: 1 (3.3%) Number (%) of patients
Dry Skin, Suspected, All grades [1]: 4 (13.3%) Number (%) of patients
Erythema, Suspected, All grades [1]: 5 (16.7%) Number (%) of patients
Eye Oedema, Suspected, All grades [1]: 14 (46.7%) Number (%) of patients
Eye Oedema, Suspected, G3 + G4 [1]: 1 (3.3%) Number (%) of patients
Eyelid Oedema, Suspected, All grades [1]: 7 (23.3%) Number (%) of patients
Lacrimation Increased, Suspected, All grades [1]: 4 (13.3%) Number (%) of patients
Mucosal Inflammation, Suspected, All grades [1]: 5 (16.7%) Number (%) of patients
Mucosal Inflammation, Suspected, G3 + G4 [1]: 1 (3.3%) Number (%) of patients
Muscle Spasms, Suspected, All grades [1]: 12 (40.0%) Number (%) of patients
Myalgia, Suspected, All grades [1]: 4 (13.3%) Number (%) of patients
Nausea, Suspected, All grades [1]: 14 (46.7%) Number (%) of patients
Neutropenia, Suspected, All grades [1]: 5 (16.7%) Number (%) of patients
Neutropenia, Suspected, G3 + G4 [1]: 2 (6.7%) Number (%) of patients
Oedema Peripheral, Suspected, All grades [1]: 6 (20.0%) Number (%) of patients
Pruritus, Suspected, All grades [1]: 10 (33.3%) Number (%) of patients
Pruritus, Suspected, G3 + G4 [1]: 1 (3.3%) Number (%) of patients
Rash, Suspected, All grades [1]: 12 (40.0%) Number (%) of patients
Rash, Suspected, G3 + G4 [1]: 3 (10.0%) Number (%) of patients
Vomiting, Suspected, All grades [1]: 7 (23.3%) Number (%) of patients
cardiac side-effects (human, in vivo): no cardiac side-effects have been observed
total number of serious adverse events (SAE) (in 8/30 patients): 14
patients with dose reduced by 100 or 200 mg/day following grade 3-4 AEs (six patients): 20%
number of treatment-related SAE (worsening of a concomitant psoriasis and anaemia): three
